Measured values reported in US20250333397A1 (REMIX THERAPEUTICS INC., priority 2021, published 2025).
Where two headings read alike, the source gives them in different places.

Assays:
Format in all cases: cell-based, human
SMN2 mRNA = assay: RT-qPCR splicing assay panel, SMN2 canonical junction (CJ) mRNA; conditions: canonical junction (CJ) mRNA, RT-qPCR panel, Table 4A, read-out: SMN2, decrease in CJ mRNA levels, IC50
Summary of the method: (§1)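 CJ and AJ junction levels were quantified by RT-qPCR on lysates, with housekeeper ΔCt normalized to DMSO (ΔΔCt) and expressed as RQ = 2^(-ΔΔCt). Before lysis, K562 or A673 cells had 24 h compound exposure at 37 °C. Dosing was 11 points, 3-fold, from 10 uM final, with DMSO at most 0.25%.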

HTT mRNA = assay: RT-qPCR splicing assay, HTT canonical (CJ) and alternative (AJ) junction mRNA; conditions: for AC50: read-out: HTT AJ (AC50, increase in AJ mRNA)
Summary of the method: as §1

Target C mRNA = assay: RT-qPCR splicing assay panel, Target C canonical junction (CJ) mRNA; conditions: canonical junction (CJ) mRNA, RT-qPCR panel, Table 4A, read-out: Target C, decrease in CJ mRNA levels, IC50
Summary of the method: as §1

MYB mRNA = assay: RT-qPCR splicing assay, MYB canonical (CJ) and alternative (AJ) junction mRNA; conditions: for AC50: read-out: MYB AJ (AC50, increase in AJ mRNA)
Summary of the method: as §1

[1] = Homo sapiens, 24 h, Table 3A, A673 or K562 cells, 24 h treatment
[2] = Homo sapiens, 24 h, Table 3A, A673 or K562 cells, 24 h treatment, read-out: HTT CJ (IC50, decrease in CJ mRNA)
[3] = Homo sapiens, canonical junction (CJ) mRNA, RT-qPCR panel, Table 4A, read-out: HTT, decrease in CJ mRNA levels, IC50
[4] = Homo sapiens, 24 h, Table 3A, A673 or K562 cells, 24 h treatment, read-out: MYB CJ (IC50, decrease in CJ mRNA)
[5] = Homo sapiens, canonical junction (CJ) mRNA, RT-qPCR panel, Table 4A, read-out: MYB, decrease in CJ mRNA levels, IC50
[6] = Table 3A, A673 or K562 cells, 24 h treatment

| SMILES | IC50 (SMN2 mRNA; Homo sapiens) [nM] | AC50 (HTT mRNA; [1]) [nM] | IC50 (HTT mRNA; [2]) [nM] | IC50 (HTT mRNA; [3]) [nM] | IC50 (Target C mRNA; Homo sapiens) [nM] | AC50 (MYB mRNA; [1]) [nM] | IC50 (MYB mRNA; [4]) [nM] | IC50 (MYB mRNA; [5]) [nM] | IC50 (SMN2 mRNA) [nM] | AC50 (HTT mRNA; [6]) [nM] | IC50 (HTT mRNA; Table 3A, A673 or K562 cells, 24 h treatment, read-out: HTT CJ (IC50, decrease in CJ mRNA)) [nM] | IC50 (HTT mRNA; canonical junction (CJ) mRNA, RT-qPCR panel, Table 4A, read-out: HTT, decrease in CJ mRNA levels, IC50) [nM] | IC50 (Target C mRNA) [nM] | AC50 (MYB mRNA; [6]) [nM] | IC50 (MYB mRNA; Table 3A, A673 or K562 cells, 24 h treatment, read-out: MYB CJ (IC50, decrease in CJ mRNA)) [nM] | IC50 (MYB mRNA; canonical junction (CJ) mRNA, RT-qPCR panel, Table 4A, read-out: MYB, decrease in CJ mRNA levels, IC50) [nM] |
| --- | --- | --- | --- | --- | --- | --- | --- | --- | --- | --- | --- | --- | --- | --- | --- | --- |
| Cn1ncc(-c2ccc(-c3ccc(N4CC[C@H](NC(C)(C)C)C4)nn3)c(O)c2)cc1=O [Compound 298, 5-(4-{6-[(3S)-3-(tert-butylamino)pyrrolidin-1-yl]pyridazin-3-yl}-3-hydroxyphenyl)-2-methylpyridazin-3-one] | < 100 | 100 to 1000 | < 100 | < 100 | 100 to 1000 | 100 to 1000 | 100 to 1000 | 100 to 1000 | – | – | – | – | – | – | – | – |
| CCOc1cc(-c2ccc(-c3ccc(N4CC[C@@H](NC5CCC5)C4)nn3)c(O)c2)cnn1 [Compound 301] | 1000 to 10000 | > 10000 | > 10000 | > 10000 | > 10000 | > 10000 | > 10000 | > 10000 | – | – | – | – | – | – | – | – |
| COc1cc(-c2ccc(-c3ccc(N4CCC(N[C@H]5C[C@H](O)C5)C4)nn3)c(O)c2)cnn1 (stereo partly drawn) [Compound 447] | < 100 | < 100 | < 100 | < 100 | 100 to 1000 | 100 to 1000 | 100 to 1000 | 100 to 1000 | – | – | – | – | – | – | – | – |
| COc1cc(-c2ccc(-c3ccc(N4CC[C@H](NC(C)(C)C)C4)nn3)c(O)c2)cnn1 [Compound 210, 2-{6-[(3S)-3-(tert-butylamino)pyrrolidin-1-yl]pyridazin-3-yl}-5-(6-methoxypyridazin-4-yl)phenol] | < 100 | < 100 | < 100 | < 100 | < 100 | < 100 | < 100 | < 100 | – | – | – | – | – | – | – | – |
| COc1cc(-c2ccc(-c3ccc(N4CCC(N[C@H]5C[C@H](OC)C5)C4)nn3)c(O)c2)cnn1 (stereo partly drawn) [Compound 448] | < 100 | 100 to 1000 | 100 to 1000 | 100 to 1000 | 100 to 1000 | 100 to 1000 | 100 to 1000 | 100 to 1000 | – | – | – | – | – | – | – | – |
| Cc1ncc(-c2cc(O)c(-c3ccc(N4CC[C@@H](NCC5CCC5)C4)nn3)cc2F)s1 [Compound 395] | < 100 | 100 to 1000 | < 100 | < 100 | 100 to 1000 | 100 to 1000 | 100 to 1000 | 100 to 1000 | – | – | – | – | – | – | – | – |
| COc1cc(-c2cc(O)c(-c3ccc(N4CC[C@@H](NC5(C)CCC5)C4)nn3)cc2F)cnn1 [Compound 286] | < 100 | 100 to 1000 | < 100 | < 100 | 100 to 1000 | 1000 to 10000 | 1000 to 10000 | 1000 to 10000 | – | – | – | – | – | – | – | – |
| COc1cc(-c2ccc(-c3ccc(N4CCC(CNC5CCC5)C4)nn3)c(O)c2)cnn1 (stereo in doubt) [Compound 441, 2-{6-[(3S)-3-[(cyclobutylamino)methyl]pyrrolidin-1-yl]pyridazin-3-yl}-5-(6-methoxypyridazin-4-yl)phenol] | < 100 | 100 to 1000 | 100 to 1000 | 100 to 1000 | 100 to 1000 | 100 to 1000 | 100 to 1000 | 100 to 1000 | – | – | – | – | – | – | – | – |
| Cc1ncc(-c2cc(O)c(-c3ccc(N4CC[C@@](C)(NCC5CC5)C4)nn3)cc2F)s1 (single isomer, unassigned) [Compound 399] | < 100 | < 100 | < 100 | < 100 | < 100 | 100 to 1000 | 100 to 1000 | 100 to 1000 | – | – | – | – | – | – | – | – |
| COc1nc(-c2ccc(N3CCC(NC(C)(C)C)C3)nn2)ccc1-c1cnc(C)s1 (stereo not drawn) [Compound 355] | < 100 | < 100 | < 100 | < 100 | < 100 | 100 to 1000 | 100 to 1000 | 100 to 1000 | – | – | – | – | – | – | – | – |
| COc1cc(-c2cc(O)c(-c3ccc(N4CC[C@@H](NC5CC5)C4)nn3)cc2F)cnn1 [Compound 213, 2-{6-[(3R)-3-(cyclopropylamino)pyrrolidin-1-yl]pyridazin-3-yl}-4-fluoro-5-(6-methoxypyridazin-4-yl)phenol] | < 100 | 100 to 1000 | 100 to 1000 | 100 to 1000 | 1000 to 10000 | 1000 to 10000 | 100 to 1000 | 100 to 1000 | – | – | – | – | – | – | – | – |
| Cn1cc2cc(-c3ccc(-c4ccc(N5CCC(NC6CCC6)C5)nn4)c(O)c3)ncc2n1 (stereo not drawn) [Compound 320] | < 100 | 100 to 1000 | 100 to 1000 | 100 to 1000 | 100 to 1000 | 100 to 1000 | 100 to 1000 | 100 to 1000 | – | – | – | – | – | – | – | – |
| Cc1cc(-c2ccc(-c3ccc(N4CC[C@H](NC5CCC5)C4)nn3)c(O)c2)cnn1 [Compound 291, 2-{6-[(3S)-3-(cyclobutylamino)pyrrolidin-1-yl]pyridazin-3-yl}-5-(6-methylpyridazin-4-yl)phenol] | 1000 to 10000 | > 10000 | 1000 to 10000 | 1000 to 10000 | > 10000 | > 10000 | > 10000 | > 10000 | – | – | – | – | – | – | – | – |
| CN(C1CCN(c2ccc(-c3cc(F)c(-c4cn[nH]c4)cc3O)nn2)C1)C(C)(C)C (stereo in doubt) [Compound 119, 2-{6-[(3S)-3-[tert-butyl(methyl)amino]pyrrolidin-1-yl]pyridazin-3-yl}-4-fluoro-5-(1H-pyrazol-4-yl)phenol] | < 100 | < 100 | < 100 | < 100 | < 100 | < 100 | < 100 | < 100 | – | – | – | – | – | – | – | – |
| COc1cc(-c2ccc(-c3ccc(N4C[C@@H](F)[C@@H](NC(C)(C)C)C4)nn3)c(O)c2)cnn1 [Compound 218, 2-{6-[(3S,4R)-3-(tert-butylamino)-4-fluoropyrrolidin-1-yl]pyridazin-3-yl}-5-(6-methoxypyridazin-4-yl)phenol] | < 100 | < 100 | < 100 | < 100 | < 100 | < 100 | < 100 | < 100 | – | – | – | – | – | – | – | – |
| COc1nc(-c2cnc(N3CCC(NC4CCC4)C3)nn2)ccc1-c1cnc(C)s1 (stereo not drawn) [Compound 421] | 100 to 1000 | 100 to 1000 | 100 to 1000 | 100 to 1000 | 100 to 1000 | 100 to 1000 | 100 to 1000 | 100 to 1000 | – | – | – | – | – | – | – | – |
| Oc1cc(-c2cn[nH]c2)ccc1-c1ccc(N2CCC(NC3(CF)CC3)C2)nn1 (stereo not drawn) [Compound 112, 2-[6-(3-{[1-(fluoromethyl)cyclopropyl]amino}pyrrolidin-1-yl)pyridazin-3-yl]-5-(1H-pyrazol-4-yl)phenol] | < 100 | < 100 | < 100 | < 100 | 100 to 1000 | < 100 | 100 to 1000 | 100 to 1000 | – | – | – | – | – | – | – | – |
| CCc1ncc(-c2cc(O)c(-c3ccc(N4CCC(NC5CCC5)C4)nn3)cc2F)s1 (stereo not drawn) [Compound 442] | 1000 to 10000 | 1000 to 10000 | > 10000 | > 10000 | > 10000 | > 10000 | > 10000 | > 10000 | – | – | – | – | – | – | – | – |
| Cc1nc(-c2ccc(-c3ccc(N4CCC(NC5CCC5)C4)nn3)c(O)c2)cs1 (stereo not drawn) [Compound 413] | – | – | – | – | – | – | – | – | 1000 to 10000 | 1000 to 10000 | 1000 to 10000 | 1000 to 10000 | > 10000 | 1000 to 10000 | 1000 to 10000 | 1000 to 10000 |
| COc1nccc(-c2ccc(-c3ccc(N4CCC(NCC5CC5)C4)nn3)c(O)c2)n1 (stereo not drawn) [Compound 368] | 100 to 1000 | 100 to 1000 | 100 to 1000 | 100 to 1000 | 1000 to 10000 | 1000 to 10000 | 1000 to 10000 | 1000 to 10000 | – | – | – | – | – | – | – | – |
| Cc1nnc(-c2ccc(-c3ccc(N4CC[C@H](NCC5CC5)C4)nn3)c(O)c2)s1 [Compound 414] | < 100 | 100 to 1000 | < 100 | < 100 | 100 to 1000 | 100 to 1000 | 100 to 1000 | 100 to 1000 | – | – | – | – | – | – | – | – |
